Experiment: recombinant barcode read abundance after kanamycin selection (control-corrected) (log10(CPM+1)); higher = more efficient recombination; sequences stand for … in AGTGCAGAGAAAATCGGCCAGTTTTCTCTGCCTGCAGTCCGCATGCCGT…AGATTTATGCAGCGGACTGCCTTTCTCCCAAAGTGATAAACCGGACAGTATCATGGACCGGTTTTCCCGGTAATCCGTATTTGCAAGGTTGGTTTCACT; site = the 11-nt target
Outline: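 Recombination efficiency comes from barcode counts at recombinant junctions, converted to counts per million, averaged and corrected against the control. Values appear as log10(CPM+1). They were obtained from a pooled E. coli screen in which each oligo paired a target with an IS621 bridge RNA target-binding loop, and cells were plated in duplicate on chloramphenicol/ampicillin LB agar or on chloramphenicol/ampicillin/kanamycin with 0.1 mM IPTG.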
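Also: IS621 recombinase and bridge RNA in Escherichia coli cells.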

Sequence	recombinant barcode read abundance (log10)
CTCGTCACTTGGGTTCTAACCTGTTGCCT (site CTCGTGACTAG)	0.0882
CTCGTCACTTGGGTTCTAACCTGTTGCCT (site CTCGTTACTAG)	0.0923
CTCGTGACTTGGGTTCTAACCTGTTGCCT (site CTCGTAACTAG)	0.682
CTCGTGACTTGGGTTCTAACCTGTTGCCT (site CTCGTCACTAG)	0
CTCGTGACTTGGGTTCTAACCTGTTGCCT (site CTCGTGACTAG)	1.13
CTCGTGACTTGGGTTCTAACCTGTTGCCT (site CTCGTTACTAG)	0.335
CTCTAAACTTGGGTTCTAACCTGTTGCCA (site CTCTAAACTTG)	0.106
CTCTAAACTTGGGTTCTAACCTGTTGCCA (site CTCTACACTTG)	0.671
CTCTAAACTTGGGTTCTAACCTGTTGCCA (site CTCTAGACTTG)	0.108
CTCTAAACTTGGGTTCTAACCTGTTGCCA (site CTCTATACTTG)	0.0391
CTCTAAACTTGGGTTCTAACCTGTTGCGA (site CTCTAAACTTC)	0.919
CTCTAAACTTGGGTTCTAACCTGTTGCGA (site CTCTCAGCTTC)	0.0639
CTCTAACCTTGGGTTCTAACCTGTTGCGT (site CTCTAACCTAC)	1.45
CTCTAACCTTGGGTTCTAACCTGTTGCGT (site CTCTACCCTAC)	0.0519
CTCTAACCTTGGGTTCTAACCTGTTGCGT (site CTCTAGCCTAC)	0.413
CTCTAACCTTGGGTTCTAACCTGTTGCGT (site CTCTATCCTAC)	0.0249
CTCTAGACTTGGGTTCTAACCTGTTGCCT (site CTATAGACTTG)	0.00655
CTCTAGACTTGGGTTCTAACCTGTTGCCT (site CTCTAGACTAG)	0.0941

Sequence	recombinant barcode read abundance (log10)
CTCTAGCCTTGGGTTCTAACCTGTTGCAT (site CTCTAGCCTAT)	0.505
CTCTAGCCTTGGGTTCTAACCTGTTGCAT (site GTCCAGCCTAT)	0
CTCTAGTCTTGGGTTCTAACCTGTTGCTT (site CTCTAGTCTAA)	0.748
CTCTAGTCTTGGGTTCTAACCTGTTGCTT (site CTCTAGTCTAC)	0.518
CTCTAGTCTTGGGTTCTAACCTGTTGCTT (site CTCTAGTCTAG)	0.377
CTCTAGTCTTGGGTTCTAACCTGTTGCTT (site CTCTAGTCTAT)	0.755
CTCTCCTCTTGGGTTCTAACCTGTTGCCT (site CTCTCCGCTAG)	0.502
CTCTCCTCTTGGGTTCTAACCTGTTGCCT (site CTCTCCTCTAG)	1.28
CTCTCGTCTTGGGTTCTAACCTGTTGCTT (site CTCTCGTCTAA)	0.2
CTCTCGTCTTGGGTTCTAACCTGTTGCTT (site CTCTCGTCTAC)	0.517
CTCTCGTCTTGGGTTCTAACCTGTTGCTT (site CTCTCGTCTAG)	0.107
CTCTCGTCTTGGGTTCTAACCTGTTGCTT (site CTCTCGTCTAT)	0.091
CTCTGTCCTTGGGTTCTAACCTGTTGCCA (site CTCTGTCCTTA)	0.0433
CTCTGTCCTTGGGTTCTAACCTGTTGCCA (site CTCTGTCCTTG)	0.545
CTCTTAACTTGGGTTCTAACCTGTTGCGG (site AAGCATGCTTA)	0.113
CTCTTAACTTGGGTTCTAACCTGTTGCGG (site CTCTTAACTCC)	0.536
CTCTTAGCTTGGGTTCTAACCTGTTGCAA (site CTCTTAACTTA)	0.0112
CTCTTAGCTTGGGTTCTAACCTGTTGCAA (site CTCTTAGCTTT)	0.0457

Reference: the supplement of paper PMC11208160
